Here are results for 16 compounds from patent US8450479B2, “3-substituted-4-oxo-3,4-dihydro-imidazo[5,1-d][1,2,3,5-tetrazine-8-carboxylic acid amides and their use” (Pharminox Limited, priority 2007, dated 2013).

Experiment in all cases: MTT assay for 7-day toxicity assay
Holding throughout (type): cell-based
For orientation: Formazan colour is commonly taken as a measure of viable cells.

Assay [1] concerns Glioma SNB19V (MGMT−). To be noted: for GI50: Glioma SNB19V (MGMT−). On the procedure:
(§1) The cell culture techniques were carried out in a Class II microbiological safety cabinet which was swabbed with 70% IMS in distilled water before each use. […] MRC-5 cells were cultured in EMEM. Cells were grown in a humidified incubator containing 5% CO2 at 37° C. Cells were sub-cultured when growth exceeded approximately 80% confluence, normally twice weekly. The medium was aspirated from the flask and approximately 0.8 mL trypsin-EDTA 1× solution added. The cells were re-incubated at 37° C. until they visibly detached from the flask. The cell suspension was then re-suspended in 5 mL medium and 0.5-1 mL of the cell suspension was transferred to a new flask (25 cm^2) with 7 mL culture medium. The cells were further incubated at 37° C. incubator. Cells were disposed after passage nearly 30 times in order to minimize phenotypic drift. New batches of cells were taken from liquid nitrogen storage by thawing rapidly (37° C. water bath) and re-suspension in a 25 cm^2 flask with 10 mL of culture medium. Two passages were allowed to resume normal growth. For long-term maintenance, viable cells at 60-80% confluence were detached by minimum amount of trypsin/EDTA and re-suspended in sterile filtered freezing medium (95% FBS, 5% DMSO), transferred to sterile cryogenic vials, and frozen overnight at −20° C. followed by −80° C. for 1-2 days and stored in liquid nitrogen for long term storage.
(§2) Most test compounds, including temozolomide, were prepared as stock solution (100 mM) in DMSO and stored at −20° C. for not more than 6 months.
(§3) Glioma cell lines, SNB19 and U373, both MGMT transfected (i.e., SNB19M and U373M) and vector controls (i.e., SNB19V and U373V); colorectal carcinoma cell lines, HCT116, HT29, and DLD1; melanoma cell line, SKMEL-28; breast cell line, MCF-7; and normal human fetal lung fibroblast cell line, MRC-5; were harvested at 60-80% confluence—during the logarithmic phase of growth.
(§4) Following harvesting, cells in suspension were gently syringed through a 23 gauge needle to obtain a near-single cell suspension. The desired cell seeding densities were used and added into 96-well plates in 180 μL culture medium if only one test compound was to be added, or 160 μL if two test compounds were to be added in combination, which were allowed to attach at 37° C. (5% CO2) overnight. For the 7 day assay, the cell seeding density for different cell lines was as follows: SNB19V, SNB19M: 650 cells/well; U373V, U373M: 650 cells/well; SNB19VR, U373VR: 650 cells/well; HCT116, DLD-1, SKMEL-28, MRC-5, MCF-7: 400 cells/well.
(§5) The two peripheral lanes were used as blank wells (cell free) and filled with 200 μL of medium in order to minimise medium evaporation from the plate. A separate time zero (T0) plate was set up alongside other plates. Serial dilutions in tissue culture medium of a 100 mM stock of test compound in DMSO were prepared immediately before each assay to ten times the final concentrations required, and then 20 μL was added to each well (200 μL total media per well) to achieve final concentrations of 0.5 μM, 1 μM, 5 μM, 10 μM, 50 μM, 100 μM, 500 μM, and 1000 μM. A minimum of four wells received the same test compound concentration. To control wells, including those in the T0 plate, 20 μL of medium was added. […] A separate plate treated in the same way, but free of test compound, was used as a measure of cell viability at the time of drug addition (day 0).
(§6) After incubation at 37° C., 5% CO2 for 7 days (or immediately for the day 0 plate), cell viability was quantified using the MTT assay. 50 μL of sterile filtered MIT (3-(4,5-dimethylthiazol-2-yl)-2,5-diphenyltetrazolium bromide) (2 mg/mL in phosphate buffered saline) were added to each well (final concentration 0.4 mg/mL) and the plates were re-incubated for 4 hours to allow metabolic conversion of MTT by dehydrogenases in viable cells to insoluble formazan crystals.
(§7) The intensity of absorbance is directly proportional to cell viability.

Assay [2] has as its system Glioma U373M (MGMT+). The conditions noted are these: Glioma U373M (MGMT+), 7-day MTT, single determinations, read-out: GI50. The procedure:
as §1, §2, §3, §4, §5, §6, §7

The test system of assay [3] is Glioma SNB19M (MGMT+). To be noted: for GI50: Glioma SNB19M (MGMT+). The procedure:
as §1, §2, §3, §4, §5, §6, §7

The subject of assay [4] is Glioma U373V (MGMT low). To be noted: Glioma U373V (MGMT low). The procedure: as §1, §2, §3, §4, §5, §6, §7
Where [5] appears, read: 168 h, 7-day MTT, single determinations, read-out: GI50.
Setting [6] is: 7-day MTT, single determinations, read-out: GI50.

Values joined by “and” are separate entries in the source; they are usually repeats but may differ in a detail not shown here. Equal values may be shown once. Where a name gives a salt, the structure may show the parent alone. Read-outs that look alike come from different tables or passages of the source.

By GI50 is commonly meant the concentration giving 50% growth inhibition. As for `NC(=O)c1ncn2c(=O)n(C3CCNCC3)nnc12` [HH-001, 3-Piperidin-4-yl-8-carbamoylimidazotetrazin-4-one hydrobromide], the GI50 in assay [1] (setting [5]) was determined as 167 µM; in assay [1] (7-day MTT, single determinations, hydrobromide, read-out: GI50), 190 µM; in assay [2] (168 h) it was 72 µM; in assay [2] (hydrobromide), 115 µM.

`CSCCn1nnc2c(C(N)=O)ncn2c1=O` [KK-002, 3-(2-Methylsulfanyl-ethyl)-4-oxo-3,4-dihydro-imidazo[5,1-d][1,2,3,5]tetrazine-8-carboxylic acid amide]: the concentration for 50% growth inhibition (GI50) is 304 µM in assay [3] (setting [5]); 259 µM in assay [3] (setting [6]); 288 µM in assay [1] (setting [5]); 321 µM in assay [1] (setting [6]); 229 µM in assay [2] (168 h); 286 µM in assay [2]. The 50% growth inhibitory concentration (GI50) in assay [4] (setting [5]) was 152 µM; in assay [4] (setting [6]), 300 µM.

For the compound `CCOP(=O)(Cn1nnc2c(C(N)=O)ncn2c1=O)OCC` [VV-001, (8-Carbamoyl-4-oxo-imidazo[5,1-d][1,2,3,5]tetrazin-3-ylmethyl)-phosphonic acid diethyl ester], the GI50 in assay [3] is 102 µM and 85.6 µM; in assay [1], 73.6 µM and 63.4 µM; in assay [4], 306 µM and 174 µM. Also, the “activity compared with TMZ, in words” value in assay [3] (SNB19M glioma cell line) and in assay [1] (SNB19V glioma cell line) was “more active than TMZ” throughout.

With `CNC(=O)Cn1nnc2c(C(N)=O)ncn2c1=O` [JJ-002, N-Methyl (8-Carbamoyl-oxoimidazo[5,1-d][1,2,3,5]tetrazin-3(4H)-yl)ethanamide], the GI50 in assay [3] (setting [5]) came out at 258 µM; in assay [3] (setting [6]), 235 µM; in assay [1] (setting [5]) it was 73.5 µM; in assay [1] (setting [6]), 58.1 µM; in assay [2] (168 h) it was 306 µM; in assay [2], 221 µM. In addition, the figures for the GI50 in assay [4] (setting [5]) and in assay [4] (setting [6]) were 234 µM and 287 µM, respectively.

Turning to `CC(c1ccc(Br)cc1)n1nnc2c(C(N)=O)ncn2c1=O` (racemic) [BB-005, (+/−) 3-(-1-(4-Bromophenyl)ethyl)-8-carbamoylimidazotetrazin-4-one], the 50% growth inhibitory concentration (GI50) in assay [1] (setting [5]) was 42 µM; in assay [1] (setting [6]) it was 80.2 µM and 81 µM and 70.2 µM.

`CC#CCn1nnc2c(C(N)=O)ncn2c1=O` [EE-002, 3-But-2-ynyl-4-oxo-3,4-dihydro-imidazo[5,1-d][1,2,3,5]tetrazine-8-carboxylic acid amide]: the concentration for 50% growth inhibition (GI50) in assay [3] (setting [5]) was found to be 38.1 µM; in assay [3] (setting [6]), 37.1 µM; in assay [1] (setting [5]), 33.5 µM; in assay [1] (setting [6]), 45.8 µM; in assay [2] (168 h), 41.1 µM; in assay [2], 25.1 µM. Further, the concentration for 50% growth inhibition (GI50) in assay [4] (setting [5]) was determined as 42.1 µM; in assay [4] (setting [6]), 31.1 µM.

Take `Cc1noc(Cn2nnc3c(C(N)=O)ncn3c2=O)n1` [CC-003, 3-(3-Methyl-[1,2,4]oxadiazol-5-ylmethyl)-4-oxo-3,4-dihydro-imidazo[5,1-d][1,2,3,5]tetrazine-8-carboxylic acid amide]: the concentration for 50% growth inhibition (GI50) in assay [3] (setting [5]) amounted to 198 µM; in assay [3] (setting [6]), 208 µM; in assay [1] (setting [5]), 208 µM; in assay [1] (setting [6]) it was 176 µM; in assay [2] (168 h), 196 µM; in assay [2], 391 µM.

Regarding `COc1ccc([C@@H](C)n2nnc3c(C(N)=O)ncn3c2=O)cc1` [BB-003, (R)-3-(−1-(4-Methoxyphenyl)ethyl)-8-carbamoylimidazotetrazin-4-one], the 50% growth inhibitory concentration (GI50) stood at 72.3 µM in assay [3] (setting [5]); 97.1 µM in assay [3] (setting [6]); 55.8 µM in assay [1] (setting [5]); 93.7 µM in assay [1] (setting [6]); 71 µM in assay [4] (setting [5]); 138 µM in assay [4] (setting [6]).

`CC(C)(C)OC(=O)Cn1nnc2c(C(N)=O)ncn2c1=O` [LL-006, (8-Carbamoyl-4-oxo-imidazo[5,1-d][1,2,3,5]tetrazin-3-yl)-acetic acid tert-butyl ester]: the GI50 in assay [3] (168 h, 7-day MTT, single determinations) was 64 µM; in assay [3] (7-day MTT, single determinations), 60.5 µM and 87.2 µM.

As for `NC(=O)c1ncn2c(=O)n(CCC(=O)O)nnc12` [LL-001, 3-(8-Carbamoyl-oxoimidazo[5,1-d][1,2,3,5]tetrazin-3(4H)-yl)propanoic acid], the GI50 in assay [3] (setting [5]) is 397 µM; in assay [3] (setting [6]) it was 232 µM; in assay [1] (setting [5]), 356 µM; in assay [1] (setting [6]) it was 355 µM; in assay [2] (168 h) it was 236 µM; in assay [2], 281 µM. In addition, the GI50 in assay [4] (setting [5]) was determined as 234 µM; in assay [4] (setting [6]) it was 248 µM.

Consider `NC(=O)c1ncn2c(=O)n(Cc3c[nH]nn3)nnc12` [CC-005, 4-Oxo-3-(1H-[1,2,3]triazol-4-ylmethyl)-3,4-dihydro-imidazo[5,1-d][1,2,3,5]tetrazine-8-carboxylic acid amide], for which the GI50 is 257 µM in assay [3] (setting [5]); 409 µM in assay [3] (setting [6]); 357 µM in assay [1] (setting [5]); 239 µM in assay [1] (setting [6]); 334 µM in assay [2] (168 h); 330 µM in assay [2]. The GI50 in assay [4] (setting [5]) worked out at 261 µM; in assay [4] (setting [6]) it was 400 µM.

For the compound `NC(=O)c1ncn2c(=O)n(CC3CCCCC3)nnc12` [GG-001, 3-Cyclohexylmethyl-8-carbamoylimidazotetrazin-4-one], the GI50 was 831 µM in assay [3] (setting [5]), 445 µM in assay [3] (setting [6]), 717 µM in assay [4] (setting [5]) and > 1000 µM in assay [4] (setting [6]).

For `NC(=O)c1ncn2c(=O)n(CC3CC3)nnc12` [GG-003, 3-Cyclopropylmethyl-8-carbamoylimidazotetrazin-4-one], the GI50 in assay [3] (setting [5]) turned out to be 152 µM; in assay [3] (setting [6]), 293 µM; in assay [4] (setting [5]), 386 µM.

`NC(=O)CCn1nnc2c(C(N)=O)ncn2c1=O` [JJ-004, 3-(8-Carbamoyl-oxoimidazo[5,1-d][1,2,3,5]tetrazin-3(4H)-yl)propanamide]: the GI50 in assay [3] (setting [5]) was 417 µM; in assay [3] (setting [6]), 281 µM; in assay [1] (setting [5]), 348 µM; in assay [1] (setting [6]), 294 µM.

With `CC(C)(C)C(=O)OCn1nnc2c(C(N)=O)ncn2c1=O` [LL-004, 2,2-Dimethyl-propionic acid 8-carbamoyl-4-oxo-imidazo[5,1-d][1,2,3,5]tetrazin-3-ylmethyl ester], the 50% growth inhibitory concentration (GI50) was 47.2 µM in assay [1] (setting [5]); 35.9 µM and 51.9 µM in assay [1] (setting [6]).

In the case of `Cc1cc(Cn2nnc3c(C(N)=O)ncn3c2=O)on1` [CC-004, 3-(3-Methyl-isoxazol-5-ylmethyl)-4-oxo-3,4-dihydro-imidazo[5,1-d][1,2,3,5]tetrazine-8-carboxylic acid amide], the results for the concentration for 50% growth inhibition (GI50) in assay [1] (setting [5]), in assay [1] (setting [6]) and in assay [2] (168 h) were 38 µM, 54.9 µM and 29.3 µM, respectively.
